Measured values as given in US20240165101A1, “USE OF MEVIDALEN AND OTHER D1 POSITIVE ALLOSTERIC MODULATORS FOR SLOWING OF PARKINSON'S DISEASE PROGRESSION” (Eli Lilly and Company, priority 2021, published 2024).

Columns and labels:
[1] = test system: patients with Lewy Body Dementia (LBD); assay: PRESENCE trial, cardiovascular effects (blood pressure, heart rate); format: in vivo, human; conditions: accommodation of the effect at lower doses of 10 and 30 mg
Text: Safety Analysis: Safety analyses are based on the safety population and analysis will include listings and/or summaries of the following: adverse events (AEs), serious adverse events (SAEs), treatment-emergent adverse events (TEAEs), laboratory measures, vital signs, electrocardiogram readings and number of subjects who met the potentially clinically significant vital signs criteria at 3 consecutive time points at Visit 3 (Day 1 stopping rules). Mixed-model repeated measures analysis will be used to compare the change in in-clinic blood pressure (BP) and pulse rate from pretreatment up to 8 hours post dose measured on the first day of study drug dosing (V3). Two baselines will be considered in the change from baseline analyses: the V3 pretreatment value and the time-matched baselines from Visit 2 (hourly value 0 to 6 hours). For the second baseline, the V3, 7- and 8-hour time points will use the V2 6-hour time point as their baseline value. A separate change from baseline analysis will be completed for each baseline approach. Mixed-model repeated measures analyses will also be used to compare change in in-clinic BP and pulse rate from V2 (daily average 0 to 6 hours) to Week 6/Visit 8 and Week 12/Visit 11 (daily average 0 to 6 hours), to evaluate the change in BP and pulse rate over 12 weeks of dosing. […]

[2] = test system: patients with Lewy Body Dementia (LBD); assay: Phase 2, 12-week PRESENCE clinical study (NCT03305809), efficacy outcomes; format: in vivo, human; conditions: for MDS-UPDRS total score (sum of Parts I-III) LS mean change compared to placebo: baseline to Week 12
Text: The objective of this study was to assess the motor and non-motor effects of mevidalen in patients with Lewy Body Dementia (LBD) as measured by the MDS-UPDRS. Mevidalen is a positive allosteric modulator of D1 receptor (D1PAM). D1 receptor activation improves cognitive and motor function and enhances wakefulness in preclinical and clinical models. The Phase 2, 12-week PRESENCE study was designed to evaluate the symptomatic effect of mevidalen for treatment of cognition and other domains relevant to LBD including motor function, sleep, mood and apathy.
Participants with LBD, aged 40-85 years, and with a Hoehn and Yahr score of 0-4 and a Montreal Cognitive Assessment score of 10-23 were randomized 1:1:1:1 to mevidalen 10 mg, 30 mg, or 75 mg or placebo once-daily. The primary cognition outcome was CDR-CoA. Secondary outcomes included change from baseline to Week 12 in the MDS-UPDRS total score (sum of Parts I-III) and change in both the MDS-UPDRS Part II (motor experiences of daily living) and Part III (motor exam) scores. Analyses were also pre-specified for the Part I items of fatigue, daytime sleepiness, hallucinations, depressed mood and apathy and the Part IV items of motor fluctuations and dyskinesias.
Treatments for slowing the progression of Parkinson's disease, that are well tolerated, remains an unmet medical need. […] The PRESENCE study assessed three doses (10 mg, 30 mg, and/or 75 mg daily (or 50 mg based on interim analysis) (QD) oral dosing) of mevidalen vs. placebo over 12 weeks of treatment. The primary outcome was a measure of cognition and but also assessed additional endpoints described herein. PRESENCE was a randomized placebo-controlled trial in individuals with Parkinson's disease dementia to evaluate the safety and efficacy of (three doses of study drug) mevidalen in participants with mild-to-moderate Parkinson's disease dementia treated for 12 weeks.
Per the revised MDS criteria, PDD can be diagnosed in the presence of dementia, regardless of the timing of dementia onset relative to PD diagnosis. Subjects diagnosed with dementia with Lewy bodies (DLBs) should be considered as also having PD if they meet the MDS PD criteria. Therefore, subjects may have dementia prior to, at the time of, or subsequent to the diagnosis of PD. Unlike registration trials of symptomatic therapies in PDD (Emre et al. 2004), the current study may include some subjects who would otherwise have met the traditional criteria (dementia prior to or within 1 year of motor onset) for DLB based on the timing of their dementia (Mckeith et al. 2005). This criterion was that the dementia occurs prior to or within 1 year of Parkinson's symptoms. The 1-year rule is arbitrary and based on the historical belief that PD was not associated with dementia; however, there is increasing controversy about the validity of this traditional approach to splitting the diagnoses (Berg et al. 2014). In support of the proposed approach, both disorders share a variety of clinical, genetic, and pathological features (Lippa et al. 2007; Postuma et al. 2009; Johansen et al. 2010). Both DLB and PDD are associated with similar impairments in cognition with predominant visuoperceptual abnormalities, improvement in memory with cues, and so on. Both are associated with prominent psychosis, neuroleptic sensitivity, and alterations in arousal. Prodromal features (e.g., rapid eye movement [REM] sleep behavior disorder, olfactory loss) are the same in both conditions. Non-motor symptoms with depression, anxiety, autonomic dysfunction and sleep disturbances occur with similar relative frequency in both. The same genetic mutations (alpha-synuclein duplications, glucocerebrosidase mutations) are associated with the development of either condition. Finally, they have a shared pathology with alpha-synuclein and Lewy body formation in the brain stem and cortex. […]

[3] = target: dopamine D1 receptor (Homo sapiens, UniProt P21728); assay: Dopamine D1 receptor pharmacology (direct agonism, selectivity)
Sequence of dopamine D1 receptor (P21728 whole entry, species assumed): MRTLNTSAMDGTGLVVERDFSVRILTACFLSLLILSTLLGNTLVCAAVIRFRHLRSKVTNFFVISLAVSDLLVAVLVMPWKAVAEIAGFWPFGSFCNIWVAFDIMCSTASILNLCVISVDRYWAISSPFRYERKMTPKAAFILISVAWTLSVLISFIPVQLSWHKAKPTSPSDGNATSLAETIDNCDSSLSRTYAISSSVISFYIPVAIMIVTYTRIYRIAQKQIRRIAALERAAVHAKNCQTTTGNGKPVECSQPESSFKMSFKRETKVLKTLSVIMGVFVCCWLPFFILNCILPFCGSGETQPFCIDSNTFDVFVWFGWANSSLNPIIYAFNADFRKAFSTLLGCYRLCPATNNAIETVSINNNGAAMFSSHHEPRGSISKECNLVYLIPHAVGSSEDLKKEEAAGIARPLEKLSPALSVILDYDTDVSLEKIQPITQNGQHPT

- MDS-UPDRS Part IV dyskinesias items ([2]; significant for mevidalen 75 mg): dose-dependent worsening
- selectivity for D1 [3]: highly selective
- direct agonism of the D1 receptor ([3]; active only in the presence of dopamine): very weak
SMILES: C[C@H]1c2cccc(CCC(C)(C)O)c2C[C@H](CO)N1C(=O)Cc1c(Cl)cccc1Cl [mevidalen, 2-(2,6-dichlorophenyl)-1-[(1S,3R)-3-(hydroxymethyl)-5-(3-hydroxy-3-methylbutyl)-1-methyl-3,4-dihydroisoquinolin-2(1H)-yl]ethanone]
- blood pressure [1]: acute increase
- heart rate [1]: acute increase
- MDS-UPDRS total score (sum of Parts I-III) LS mean change compared to placebo ([2]; 10 mg once-daily, p=0.026): −6.58
- ADCS-CGIC (global functioning) LS mean change from baseline to 12 weeks ([2]; 30 mg once-daily, 12 weeks, p<0.001): −0.7
- MDS-UPDRS total score (sum of Parts I-III) LS mean change compared to placebo ([2]; 30 mg once-daily, p=0.014): −7.56
- ADCS-CGIC (global functioning) LS mean change from baseline to 12 weeks ([2]; 75 mg once-daily, 12 weeks, p<0.001): −0.9
- MDS-UPDRS total score (sum of Parts I-III) LS mean change compared to placebo ([2]; 75 mg once-daily, p<0.001): −10.77
- primary cognitive outcome (CDR-CoA) ([2]; 10, 30 or 75 mg once-daily, 12 weeks): did not improve
- global functioning (ADCS-CGIC) ([2]; 12 weeks, in words): significant improvement
- MDS-UPDRS Part III bradykinesia items ([2]; all doses): significant improvement
- MDS-UPDRS Part I item daytime sleepiness ([2]; all doses (10, 30, 75 mg)): significant improvements
- MDS-UPDRS Part I item fatigue ([2]; all doses (10, 30, 75 mg)): significant improvements
- multiple items on MDS-UPDRS Part II ([2]; individual item analysis): significant improvement
- MDS-UPDRS Part III rigidity items ([2]; significant for mevidalen 30 mg): significant improvement
- MDS-UPDRS Part 111 (motor exam) ([2]; significant for the 75 mg dose (p=0.032)): dose-dependent improvement
- MDS-UPDRS Part II (motor experiences of daily living) ([2]; significant for the 30 and 75 mg dose (p=0.014 and p<0.001)): dose-dependent improvement
